# Tested on: cell culture
substance,measurement,value
poly(alloocimene-b-isobutylene-b-alloocimene) [AIBA],cytotoxicity in cell culture studies,non-cytotoxicity
